US20250170098A1, “MOLECULAR JACKHAMMER FOR MECHANICAL DESTRUCTION OF CELLULAR STRUCTURE” (William Marsh Rice University, priority 2022, published 2025)

Key:
[1] = test system: human melanoma A375 cells; experiment: Cell permeabilization to DAPI, flow cytometry analysis; assay type: cell-based
Description: The activity of plasmon-driven MJHs to open cell membranes by VDA upon NIR light-activation was evaluated in human melanoma A375 cells. When the cell membranes were open by VDA, DAPI enters immediately into the cells and stain the nucleus, and flow cytometry analysis was used to quantify the percentage of DAPI positive cells at variable concentrations of MJH. The flow cytometry analysis is conducted immediately after the cells were treated with 730 nm LED light at 80 mW/cm^2 for 10 min. Typically, it took ˜30 s to start cell counting and observe that DAPI already had entered into the cell membrane-compromised cells but not in the controls without VDA action. This is indicative of a rapid necrotic cell death and cell membrane permeabilization to DAPI by VDA action. The effective concentration needed to permeabilize cells by 50% (VDA IC50) was estimated for each molecule.
The flow cytometry data was analyzed using FlowJo software version 10.5.3. Then, a wide polygonal gate was drawn as shown in FIG. 33A since we were interested in detecting any cell death after treatment, we were not only interested in measuring healthy cell populations. Sometimes, we observed that the death cell population upon treatment shifted outside the gate if a narrow gate was used. Then, the singlets were selected and the DAPI fluorescence intensity was plotted versus the SSC-A and the gate for DAPI positive cells was drawn as shown in FIG. 33C and the analysis was applied to all samples in the group. In FIG. 33D, a DAPI positive population is observed in the same analysis group. This analysis was applied to calculate the percentage of DAPI positive cells.
Cell Permeabilization and flow cytometry analysis. A375 cells were cultured as described before. One day before the treatment, cells were inoculated at 5 million cells per dish (10 cm polystyrene tissue culture dish). The cells were harvested using 0.05% trypsin-EDTA (Gibco, 25-300-054), then the cells were counted and were adjusted to a cell density of 2×10^5 cells/mL in DMEM media with L-glutamine, 4.5 g/L glucose, and sodium pyruvate (Corning Inc. 10013CV) and supplemented with 10% FBS (Corning, 35010CV), 2×MEM vitamin solution (Gibco, 11120052), 1×MEM non-essential amino acid solution (Gibco, 11140050) and penicillin/streptomycin. 1 mL of this cell suspension containing 2×10^5 cells was used in each treatment. In a 1.5 mL Eppendorf tube, […] containing 2 mM Cy7.5-amine (or other cyanine molecule or other concentration) in DMSO (Fisher, 99.7%) was placed in the bottom of the tube, then 1 mL of the cell suspension was added into the tube to get final concentration of 2 μM of Cy7.5-amine containing 0.1% DMSO and 2×10^5 cells. The mixture was then incubated at 37° C. and 5% CO2 for 30 min. Then, 1 mM DAPI was added into the cell suspension. Then, the cells suspension was transferred to a […] tissue culture dish and immediately the cells were treated under the light beam of NIR light of 730 nm at 80 mW/cm^2 (or adjusted powers down to 20 mW/cm^2) for 10 min (or adjusted illumination times down to 30 s) using LED light source (PRIZMATIX, UHP-F-730, Israel) which covered the entire dish. While the cells were treated, the dish was placed on top of an aluminum block painted black, so that the excess NR light and that was not reflected back into the cell suspension while the aluminum block actED as a heat-sink, maintaining a constant temperature in the dish during the irradiation. The instrument for flow cytometry analysis (SONY, MA900 Multi-Application Cell Sorter) was already set up and calibrated by the time the light treatment was finished. Therefore, as soon as the 10-min light treatment was completed, the cell suspension was rapidly transferred from the 35 mm dish to a flow cytometry tube and the cells were analyzed for DAPI permeabilization and Cy7.5-amine binding. It took ˜30 s to load the sample and to start the analysis. […]

[2] = test system: A375 human melanoma tumors; experiment: Treatment of A375 human melanoma tumors in nude mice; assay type: in vivo, mouse
Description: Preparation of fresh solution of 200 μM Cy7.5-amine and 2.5% DMSO for in vivo studies. In the day of treatment, fresh solution of 200 μM Cy7.5-amine was prepared by diluting in PBS buffer the 8 mM Cy7.5-amine stock in DMSO, the final dilution contained 2.5% DMSO. As control 2.5% DMSO in PBS buffer was used.
Injection of A375 cells subcutaneously in athymic nude mice to generate the human melanoma tumor model. The A375 cells were culture as described before. Cells were harvested from sub-confluent plates, ˜90%, and fresh media was added to the cells the day before harvesting. The cells were harvested using 0.05% trypsin-EDTA (Gibco, 25-300-054). The harvested cells were re-dispersed in DMEM media without supplements at 50×10^6 cells mL^−1. The cell suspension was kept in ice. Then 100 μL of cells were injected per mouse (this was 5 million of cells per mouse) subcutaneously in the right flank of 7-8 weeks old female athymic nude mouse. Starting at day 2 the tumors were measured using a caliper. The typical volume of the tumors at day 2 was ˜33 mm^3. The volume of the tumor was calculated as: (½)×length×width×height. When the height was not possible to measure in the case of the tumors that were too small (usually <100 mm^3), then the tumor volume was calculated as: (½)×length×width^2.
Treatment of A375 tumors with Cy7.5-amine and NIR 730 nm light. The tumors were treated at day 3 (since 5 million initial cells were injected per tumor site) when the average tumors size was 35 mm^3. Forty mice were divided in 4 groups (number of mice per group, n=10): 1) Cy7.5-amine only 2) 2.5% DMSO only, 3) 2.5% DMSO+Light and 3) Cy7.5-amine+light. The day of treatment, fresh solutions (200 μM of Cy7.5-amine in PBS and controls 2.5% DMSO in PBS) were prepared as described before. The mice were anesthetized with isoflurane using a vaporizer. Then, each mouse was injected with 50 μL of 200 μM Cy7.5-amine solution in PBS or 2.5% DMSO, intratumorally. Then mice were kept for 25 min in the cages to let the Cy7.5-amine solution or DMSO solution interact with the tumors. Then, after the 25 min of incubation, the mice were treated (under anesthesia, using isoflurane) with 730 nm LED light source from Prizmatix applying a power intensity of 150 mWcm^−2 for 5 min (other power intensities were 210 mWcm^−2 for 5 min and 300 mWcm^−2 for 5 min as described in the treatment schedule in FIG. 27F). The light intensity was measured using an Optical Power Meter from Thorlabs, sensor model S302C and console model PM100D. When the treatment was finished the mice were put back into the cages and housed in the animal facility. The tumors sizes were measured every other day using a caliper in the first 20 days of the study and then in the late stage of the study twice a week.

For CN1/C(=C\C=C2C=C(/C=C/C3=[N+](CCCCCC(=O)NCCCCCCN)c4ccc5ccccc5c4C3(C)C)CCC\2)C(C)(C)c2c1ccc1ccccc21 [Cy7.5-amine], the “permeabilization to DAPI staining, percentage of cells” value ([1]; 1 μM, 730 nm LED at 80 mW/cm^2 for 10 min) was 99.6%, the “binding to cells upon addition of acetic acid” value ([1]; 2 μM, acetic acid 0 mM-10 mM) was “not able to bind efficiently to lipid membranes” and the mice tumor free ([2]; 8 μg intratumoral + light (300 mWcm^−2 of 730 nm LED for 5 min)) was 50%. For the same molecule, the “survival rate of mice with A375 tumors” value ([2]; 8 μg intratumoral + light (300 mWcm^−2 of 730 nm LED for 5 min), day 120) was 60%, the “effect on size of A375 tumors” value ([2]; 150-215 mWCm^−2) was “mild therapeutic effect” and the “effect on size of A375 tumors” value ([2]; 300 mWCm^−2) was “strong effect on the regression of the tumor size”. For the same molecule, the “survival of mice with A375 tumors” value ([2]; Cy7.5-amine group without light) was 20%.
